Test system: hNEPT
Assay: C-peptide content (ELISA, normalised to DNA) of hNEPT
Format: cell-based, human
Description: hNEPT culture: Human islets were isolated at the DRI's cGMP facility following methods already described54, and hNEPT samples (2-4 ml) were obtained as an isolation byproduct. The cells were washed and seeded on tissue culture-treated plates in FBS- and trypsin inhibitor-supplemented RPMI 1640 medium (Gibco-Life Technologies, Grand Island, N.Y.). After 48 h, floating cells were removed with fresh medium replacement. The following day, cultures were either treated with 100 ng/ml BMP-7 (ProSpec-Tany TechnoGene; Ness Ziona, Israel) or remained in the starting medium as controls. Cells were allowed to grow 4-5 days and then the serum-containing medium was replaced by serum-free Advanced RPMI 1640 (Gibco-Life Technologies, Grand Island, N.Y.). Four to five days later the cells were either subjected to static incubation to evaluate their ability to respond to changing glucose concentration or collected for further assessments (such as C-peptide content, immunohistochemistry or cellular composition) or transplantation.
Glucose-stimulated insulin release (GSIR) and total insulin determination: GSIR was performed in six-well plate cultures. BMP-7-treated samples and untreated controls were washed twice with DMEM medium containing 2.5 mM glucose (Low glucose medium or L-medium). Upon addition of 2 ml of the same medium, the cells were cultured for 1 h at 37° C. to bring their insulin secretion to baseline. After 2 more washes, 1 ml of L-medium was added and the cells were returned to the incubator for 1 h. At the end of incubation period, the medium was collected and the cells exposed for 1 h to 1 ml of 20 mM glucose DMEM medium (high glucose medium or H-medium). After the collection of the H-medium supernatant, the cells were washed three times with L-medium and cultured again in low glucose conditions for 1 h. As before, supernatant was collected at the end of the incubation period. The second low glucose incubation is necessary to confirm that the cells are responding to glucose concentration changes in a physiological manner and not dumping insulin. After the last incubation, the cells were collected, washed in PBS and lysed with 1 ml of T-Per (Thermo Scientific, Rockford, Ill.). The lysates and the supernatants from GSIR test were evaluated with ELISA for C-peptide content (Mercodia, Uppsala, Sweden) following manufacturer's instructions. DNA content of the lysates was used to normalize the results (Pico-Green dsDNA Assay Kit, Life Technologies-Molecular Probes, Grand Island, N.Y.).

Row | Molecule | reduction of the BMP-7-mediated induction of C-peptide (dorsomorphin added to BMP-7, n=4) [fold] | C-peptide production induction vs. t=0 (BMP-4 vs BMP-7 comparison, n=6, P=0.43) [fold]
1 | c1cc(-c2cnn3cc(-c4ccc(OCCN5CCCCC5)cc4)cnc23)ccn1 [dorsomorphin, reference compound] | ~3 | –
2 | BMP-4: member of the BMPs family of proteins that signals through ALK3 and ALK6; SEQ ID NO:3 (protein, listed as Homo sapiens, fragment of BMP-4) SPKHHSQRARKKNKNCRRHSLYVDFSDVGWNDWIVAPPGYQAFYCHGDCPFPLADHLNSTNHAIVQTLVNSVNSSIPKACCVPTELSAISMLYLDEYDKVVLKNYQEMVVEGCGCR | – | 198±62.8

From patent US11466255B2, “Methods and compositions for converting non-endocrine pancreatic tissue into insulin-producing cells” (UNIVERSITY OF MIAMI, priority 2015, dated 2022)
